In patent US12534439B2, “Xanthohumol derivatives and methods for making and using” (Oregon State University, priority 2021, dated 2026):

System: LPS-activated RAW 264.7 cells
Assay: Nitric oxide (NO) assay, Griess reagent
Format: cell-based
Settings: LPS 1 μg/mL, 24 hours
Method: Nitric Oxide (NO) Assay. NO secreted by LPS-activated RAW 264.7 cells into the culture medium was determined as nitrite by the Griess reagent. RAW 264.7 1 cells obtained from the American Type Culture Collection (Manassas, VA, USA) were cultured in DMEM supplemented with 2 mM glutamine, antibiotics (100 U/mL penicillin and 100 μg/mL streptomycin), and 10% heat-inactivated fetal bovine serum. The cells were initially grown in 75 cm^2 culture flasks at 37° C. in a humidified incubator with 5% CO2. After reaching 80% confluency, the cells were split by seeding them on 96-well plates (0.2 mL/well) at a density of 1.5×10^5 cells/mL. After a 24-hour incubation at 37° C., the cells were treated with LPS (1 μg/mL) with or without test compounds in various concentrations. Vehicle control cells were treated with dimethyl sulfoxide alone at a final concentration of 0.1%. Culture media from control and treated cells were collected after 24 hours of incubation and were frozen at −80° C. before analysis. For the determination of NO (as […]), […], aliquots of the thawed culture media were mixed with an equal volume of Griess reagent on a 96-well plate. […] The samples were incubated for 10 minutes at room temperature and then the absorbance was read at 550 nm using a SpectraMax 190 (Molecular Devices, Sunnyvale, CA) plate reader.

COc1cc(O)c(CC=C(C)C)c(O)c1-c1cc(-c2ccc(O)cc2)on1 [isoxazole derivative, 4-(5-(4-hydroxyphenyl)isoxazol-3-yl)-5-methoxy-2-(3-methylbut-2-en-1-yl)benzene-1,3-diol]
Concentration from which anti-inflammatory activity (decreased NO production) was displayed: ~10 µM
